Experiments:
Format in all cases: cell-based
[1] = tested on: Staphylococcus epidermidis; experiment: Reduction of azo substrates over 24 hours at 35° C., microtitration plate (Example 1); set-up: key to RED (substrate reduced or not): RED indicates whether the substrate is reduced (Y) or not (N); RED indicates whether the substrate is reduced (Y) or not (N); key to Co (growth, absorbance at 660 nm) / Decol (substrate decolourized, decrease in absorbance) / Fluo (fluorescence multiplied by 2 relative to substrate-free control): The symbol “+” means good growth/decolourization/significant increase in fluorescence; The symbol “+/−” means difficult growth; The symbol “−” means that there is no growth/decolourization/significant increase in fluorescence; settings: S. epidermidis, substrate 35 mg/l
Outline: (§1)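 Strains were incubated 24 h at 35° C. in Trypcase soya broth with azo substrate (35 mg/l), starting from a 0.5 McFarland inoculum. Growth was monitored at 660 nm, while decolourization and fluorescence increase were scored at wavelengths specific to each substrate.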

Geotrichum candidum = experiment: as above; set-up: key to RED (substrate reduced or not): RED indicates whether the substrate is reduced (Y) or not (N); RED indicates whether the substrate is reduced (Y) or not (N); key to Co (growth, absorbance at 660 nm) / Decol (substrate decolourized, decrease in absorbance) / Fluo (fluorescence multiplied by 2 relative to substrate-free control): The symbol “+” means good growth/decolourization/significant increase in fluorescence; The symbol “+/−” means difficult growth; The symbol “−” means that there is no growth/decolourization/significant increase in fluorescence; settings: G. candidum, substrate 35 mg/l
Outline: as §1

Escherichia coli = experiment: as above; set-up: key to RED (substrate reduced or not): RED indicates whether the substrate is reduced (Y) or not (N); RED indicates whether the substrate is reduced (Y) or not (N); key to Co (growth, absorbance at 660 nm) / Decol (substrate decolourized, decrease in absorbance) / Fluo (fluorescence multiplied by 2 relative to substrate-free control): The symbol “+” means good growth/decolourization/significant increase in fluorescence; The symbol “+/−” means difficult growth; The symbol “−” means that there is no growth/decolourization/significant increase in fluorescence; settings: E. coli, substrate 35 mg/l
Outline: as §1

[2] = tested on: 10 strains representing 10 species of microorganisms; experiment: Reduction of azo substrates, whole panel of Example 1; settings: substrate 35 mg/l, 35° C., 24 hours
Procedure: Reduction of the “azo” function of the substrates listed in Table I by the species listed in Table II, each species being represented by a strain, is tested in a microtitration plate.
The reaction medium consists of: • Trypcase soya broth • Substrate 35 mg/l • 0.5 MacFarland inoculum
The reduction of the substrate and the growth of the microorganisms are monitored using an Infinite® M200 Tecan microplate reader at 35° C. over 24 hours.
The growth is monitored by the absorbance at 660 nm and the reduction of the substrates by absorbance and fluorescence at the specific wavelengths indicated in Table III.
The substrate is considered as reduced by the microorganisms when the substrate is decolourized (monitored by the decrease in absorbance) (Decol) and/or when the fluorescence of the substrate is multiplied by 2 relative to the base fluorescence of a substrate-free control (Fluo). The growth is indicated by Co. The symbol “+” means good growth/decolourization/significant increase in fluorescence. The symbol “+/−” means difficult growth. The symbol “−” means that there is no growth/decolourization/significant increase in fluorescence. RED indicates whether the substrate is reduced (Y) or not (N).

Saccharomyces cerevisiae = experiment: Reduction of 3 azo substrates over 24 hours at 35° C. (Example 2); set-up: key: The strains that reduce the substrate are marked with a “+”; the strains that do not reduce the substrate are marked with a “−”; settings: substrate 35 mg/l
Procedure: (§2) The reduction of the “azo” function of the substrates listed in Table V by the 25 species listed in Table VI, each being represented by one or two strains, is tested in a microtitration plate. The reaction medium consists of: • Trypcase soya broth • Substrate 35 mg/l • 0.5 MacFarland inoculum The reduction of the substrate and the growth of the microorganisms are monitored using an Infinite® M200 Tecan microplate reader at 35° C. over 24 hours. The growth is monitored by the absorbance at 660 nm, and the reduction of the substrates by absorbance and fluorescence at the wavelengths indicated in Table III above. The substrate is considered as reduced by the microorganisms when the fluorescence is multiplied by 2 relative to the base fluorescence of the reaction medium.

[3] = tested on: Staphylococcus haemolyticus; experiment: as above; set-up: key: The strains that reduce the substrate are marked with a “+”; the strains that do not reduce the substrate are marked with a “−”; settings: substrate 35 mg/l
Procedure: as §2

Streptococcus pyogenes = experiment: as above; set-up: key: The strains that reduce the substrate are marked with a “+”; the strains that do not reduce the substrate are marked with a “−”; settings: substrate 35 mg/l
Procedure: as §2

Staphylococcus hominis = experiment: as above; set-up: key: The strains that reduce the substrate are marked with a “+”; the strains that do not reduce the substrate are marked with a “−”; settings: substrate 35 mg/l
Procedure: as §2

Citrobacter koseri = experiment: as above; set-up: key: The strains that reduce the substrate are marked with a “+”; the strains that do not reduce the substrate are marked with a “−”; settings: substrate 35 mg/l
Procedure: as §2

[4] = tested on: 45 strains representing 25 species of microorganisms; experiment: Reduction of 3 azo substrates, whole panel of Example 2; settings: substrate 35 mg/l, 35° C., 24 hours
Procedure: as §2

| Compound | Co (growth, absorbance at 660 nm) [1] | Decol (substrate decolourized, decrease in absorbance) [1] | Fluo (fluorescence multiplied by 2 relative to substrate-free control) [1] | RED (substrate reduced or not) [1] | Co (growth, absorbance at 660 nm) (Geotrichum candidum) | Decol (substrate decolourized, decrease in absorbance) (Geotrichum candidum) | Fluo (fluorescence multiplied by 2 relative to substrate-free control) (Geotrichum candidum) | RED (substrate reduced or not) (Geotrichum candidum) | Co (growth, absorbance at 660 nm) (Escherichia coli) | Decol (substrate decolourized, decrease in absorbance) (Escherichia coli) | Fluo (fluorescence multiplied by 2 relative to substrate-free control) (Escherichia coli) | RED (substrate reduced or not) (Escherichia coli) | reduction by the microorganisms tested (Table IV) [2] | reduction of the substrate by the strain (fluorescence multiplied by 2) (Saccharomyces cerevisiae) | reduction of the substrate by the strain (fluorescence multiplied by 2) [3] | reduction of the substrate by the strain (fluorescence multiplied by 2) (Streptococcus pyogenes) | reduction of the substrate by the strain (fluorescence multiplied by 2) (Staphylococcus hominis) | reduction of the substrate by the strain (fluorescence multiplied by 2) (Citrobacter koseri) | reduction by the species tested (Table VII) [4] |
| --- | --- | --- | --- | --- | --- | --- | --- | --- | --- | --- | --- | --- | --- | --- | --- | --- | --- | --- | --- |
| O=C(O)c1cc(/N=N/c2ccc(-c3nc4ccccc4s3)cc2)ccc1O [BF45, 2-Phenyl-benzothiazole-4′-azo-4″- hydroxybenzene-3″-carboxylic acid] | + | − | + | Y | + | − | − | N | + | − | + | Y |  |  |  |  |  |  |  |
| CN(C)c1ccc(N=Nc2ccc(S(=O)(=O)[O-])cc2)cc1.[Na+] [Methyl orange] | + | − | − | N | + | − | − | N | + | − | − | N | reduced only by E. faecalis |  |  |  |  |  |  |
| CN(C)c1ccc(/N=N/c2ccccc2C(=O)O)cc1 [Methyl red] | + | + | + | Y | +/− | +/− | + | Y | + | + | + | Y | can be reduced by all the microorganisms tested |  |  |  |  |  |  |
| O=S(=O)([O-])c1ccc(N=Nc2c(O)ccc3ccccc23)cc1.[Na+] [Orange II] | + | − | − | N | +/− | − | − | N | + | − | − | N |  | − | − | − | − | − | reduced mainly by E. faecalis |
| O=C([O-])C1=NN(c2ccc(S(=O)(=O)[O-])cc2)C(=O)C1/N=N/c1ccc(S(=O)(=O)[O-])cc1.[Na+].[Na+].[Na+] (centres unmarked) [Tartrazine] | + | − | − | N | +/− | − | − | N | + | − | − | N |  | − | − | − | − | − | reduced mainly by E. faecalis |
